# Source: patent EP2605769B1, “BENZOQUINONE DERIVATIVES FOR THE TREATMENT OF MITCHONDRIAL EYE DISEASES” (Santhera Pharmaceuticals (Schweiz) AG, priority 2010, dated 2012)
# Assays:
# [1] = system: Primary human fibroblasts C4 (GM04545, Coriell); experiment: Lipid peroxidation assay (BODIPY 581/591-C11); assay type: cell-based; settings: 10 µM test compound, 72 hours
# Source text: Lipid peroxidation is a well defined mechanism of cellular damage in both animals and plants that occurs during aging and in some disease states. This process proceeds by a free radical chain reaction mechanism. […] If not terminated fast enough, lipid peroxidation damages cellular membranes, affect membrane fluidity and also mitochondrial function. In addition, end products of lipid peroxidation may be mutagenic and carcinogenic. For instance, the reactive end product of lipid peroxidation, malondialdehyde, directly causes DNA damage. Experimental Procedure: […] BODIPY 581/591-C11 can be used to measure antioxidant activity in lipid environments by exploiting its loss of fluorescence upon interaction with peroxyl radicals. […] After that, 0.1 ml freshly prepared dye solution (HBSS, containing BODIPY dye 1:1000 from stock solution) was added and cells were returned to the incubator for 30 min. After 2 brief washes with 0.1 ml warmed PBS fluorescence was measured in 50 µl PBS. Fluorescence for 4 individual areas per well were individually quantified at two wavelengths (Ex1: 490, Em1: 600; Ex2: 490, Em2: 530, bandwith 10nm, 50 flashes, 400Hz frequency, 20 µs integration time).
# [2] = system: RGC-5 cells; experiment: Cellular viability of RGC-like cells challenged with rotenone (cellular ATP content); assay type: cell-based; settings: 1 day-preincubation, 100 µM
# Source text: Mitochondrial impairment directly influences cellular survival. Especially cells and tissues that display high level of energy consumption, such as neurons are especially vulnerable. Consequently, these cells and tissues are likely to be the most responsive to a strategy that targets mitochondrial function. We addressed this possibility by assessing the viability of the retinal ganglion cell line RGC-5, challenged with the mitochondrial complex I inhibitor rotenone, in the absence or presence of compounds.
# Experimental procedure: RGC-5 cells were cultured under ambient conditions (37 °C, 5% CO2, 90% humidity) in DMEM (1g/l glucose; 10% fetal bovine serum (FBS), Penicillin-Streptomycin-Glutamine (PSG)). RGC-5 cells will be seeded in DMEM (1g/l glucose; 2% FBS) into BD Falcon™ cell culture plates. Before rotenone- induced complex I inhibition, the cells were pre-treated with Compound IA or vehicle. For Compound IA co-treatment with rotenone, new compound was added together with rotenone-containing cell culture media. After the rotenone exposure, the media was exchanged and replaced by Hanks' BSS for the 1 day post-incubation. The post-treatment media contained Compound IA or vehicle only. As measure of cell viability, cellular ATP content was analyzed using luminescence from ATP-dependent enzymatic oxidation of luciferin by luciferase. RGC-5 cells were be washed with PBS and lysed in lysis buffer (4 mM EDTA, 0.2% Triton X-100) at room temperature. In 96-well plates, ATP measurement buffer (25 mM HEPES pH 7.25, 300 µM D-luciferin, 5 µg/ml firefly luciferase, 75 µM DTT, 6.25 mM MgCl2, 625 µM EDTA and 1 mg/ml BSA) was combined with lysate to start the reaction. Luminescence was quantified immediately using a multimode plate reader (Tecan M1000, Tecan iControl 1.6 software; Tecan Austria GmbH, Grödig, Austria). Effects on cell viability were defined as the percentage of compound-mediated change in cell viability relative to rotenone-induced reduction in cell viability. Data are presented as mean ± SEM. Paired Student's t-test was used to compare non-normalized data. Statistical significance was set at p≤0.05(*), p≤0.01(**) and p≤0.001(***).
SMILES,Lipid peroxidation [1] [%],"cell viability, compound-mediated change relative to rotenone-induced reduction, mean (Fig. 2) [2]","cell viability, compound-mediated change relative to rotenone-induced reduction, mean (Fig. 2) ([2]; listed as PP) [%]","cell viability, compound-mediated change relative to rotenone-induced reduction, mean (Fig. 2) ([2]; listed as propentophilline)"
COC1=C(OC)C(=O)C(CCCCCCCCCCO)=C(C)C1=O [Compound ID],110,,,
"CCCn1cnc2c1c(=O)n(CCCCC(C)=O)c(=O)n2C [propentophylline, reference compound]",,not significant,2.2,no significant protective activity
